Measurements from patent publication US20160158200A1, “Combinations of Hepatitis C Virus Inhibitors” (priority 2013, published 2016).
Like-named read-outs stand apart in the source and are kept apart here.

System: HCV genotype-1a variant with glutamine 30 changed to glutamate in the NS5A protein
Format: cell-based
Procedure, shortened: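 Synergy was assessed by combining several fixed amounts of an NS5A-targeting compound with a titration of the second compound of interest.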

[1] = test compound titrated with BMS-790052 fixed at 200 nM, genotype 1a Q30E replicon

COCCC(=O)N1C[C@H](F)C[C@H]1C(=O)N[C@H](c1nc(-c2ccc(-c3ccc(-c4c[nH]c([C@@H](NC(=O)[C@@H]5C[C@@H](F)CN5C(=O)CCOC)C(C)(C)C)n4)cc3)cc2)c[nH]1)C(C)(C)C [Compound W-103]
Fold-Synergistic 1a (Q30E) [1]: >100 fold

CC(O)(CF)C(=O)N[C@H](c1nc(-c2ccc(-c3ccc(-c4c[nH]c([C@@H](NC(=O)C(C)(O)CF)C(C)(C)C)n4)cc3)cc2)c[nH]1)C(C)(C)C (single isomer, unassigned) [Compound N-139B]
Fold-Synergistic 1a (Q30E) [1]: >100 fold

CC1([C@H](NC(=O)C2(N3CCC(F)(F)CC3)COC2)c2nc(-c3ccc(-c4ccc(-c5c[nH]c([C@@H](NC(=O)C6(N7CCC(F)(F)CC7)COC6)C6(C)CC6)n5)cc4)cc3)c[nH]2)CC1 [Compound W-62]
Fold-Synergistic 1a (Q30E) [1]: >100 fold

Cc1cc(-c2ccc(-c3c[nH]c([C@@H](NC(=O)C4CCC(F)(F)CC4)C(C)C)n3)cc2)ccc1-c1c[nH]c([C@@H](NC(=O)C2CCC(F)(F)CC2)C(C)C)n1.O=C(O)C(F)(F)F [Compound N-82]
Fold-Synergistic 1a (Q30E) [1]: >100 fold

CC(C)[C@H](NC(=O)CC#N)c1ncc(-c2ccc(-c3ccc(-c4cnc([C@@H](NC(=O)CC#N)C(C)C)[nH]4)cc3)cc2)[nH]1 [Compound S-29]
Fold-Synergistic 1a (Q30E) [1]: >100 fold

COC(c1ccccc1)C1(C(=O)N[C@H](c2nc(-c3ccc(-c4ccc(-c5c[nH]c([C@@H](NC(=O)C6(C(OC)c7ccccc7)CC6)C(C)(C)C)n5)cc4)cc3)c[nH]2)C(C)(C)C)CC1 (stereo partly shown) [Example N-137]
Fold-Synergistic 1a (Q30E) [1]: <10 fold

CC(CO)(OCCF)C(=O)N[C@H](c1nc(-c2ccc(-c3ccc(-c4c[nH]c([C@@H](NC(=O)C(C)(CO)OCCF)C(C)(C)C)n4)cc3)cc2)c[nH]1)C(C)(C)C (single isomer, unassigned) [Compound W-270]
Fold-Synergistic 1a (Q30E) [1]: >100 fold

CC(C)(C)[C@H](NC(=O)C(C)(C)C(C)(C)O)c1ncc(-c2ccc(-c3ccc(-c4cnc([C@@H](NC(=O)C(C)(C)C(C)(C)O)C(C)(C)C)[nH]4)cc3)cc2)[nH]1 [Compound B69]
Fold-Synergistic 1a (Q30E) [1]: >100 fold

CC(C)(C)C(NC(=O)C(C)(O)C(F)(F)F)c1nc(-c2ccc(-c3ccc(-c4c[nH]c(C(NC(=O)C(C)(O)C(F)(F)F)C(C)(C)C)n4)cc3)cc2)c[nH]1.O=C(O)C(F)(F)F.O=C(O)C(F)(F)F (single isomer, unassigned) [Compound L-66a]
Fold-Synergistic 1a (Q30E) [1]: >100 fold

COc1ccc(CNC(C)(C)C(=O)N[C@H](c2nc(-c3ccc(-c4ccc(-c5c[nH]c([C@@H](NC(=O)C(C)(C)NCc6ccc(OC)cc6)C(C)(C)C)n5)cc4)cc3)c[nH]2)C(C)(C)C)cc1 [Compound S-267]
Fold-Synergistic 1a (Q30E) [1]: >100 fold

O=C(c1cncnc1)N1CCC[C@H]1c1ncc(-c2ccc(-c3ccc(-c4cnc([C@@H]5CCCN5C(=O)c5cncnc5)[nH]4)cc3)cc2)[nH]1 [Compound S-195]
Fold-Synergistic 1a (Q30E) [1]: <10 fold

CC(C)(C)[C@H](NC(=O)C1(CO)CCCO1)c1nc(-c2ccc(-c3ccc(-c4c[nH]c([C@@H](NC(=O)C5(CO)CCCO5)C(C)(C)C)n4)cc3)cc2)c[nH]1 (single isomer, unassigned) [Compound Y-110]
Fold-Synergistic 1a (Q30E) [1]: >100 fold

O=C(C1CC1)N1CCC[C@H]1c1ncc(-c2ccc(-c3ccc(-c4cnc([C@@H]5CCCN5C(=O)C5CC5)[nH]4)cc3)cc2)[nH]1 [Compound S-109]
Fold-Synergistic 1a (Q30E) [1]: <10 fold

CN(C(=O)OC(C)(C)C)C1(C(=O)N2CCC(C)(C)C2c2nc(-c3ccc(-c4ccc(-c5c[nH]c(C6N(C(=O)C7(N(C)C(=O)OC(C)(C)C)CC7)CCC6(C)C)n5)cc4)cc3)c[nH]2)CC1 (stereo not shown) [Compound W-226]
Fold-Synergistic 1a (Q30E) [1]: >10 fold

COc1cc2ccccc2c(C(=O)N2CCC[C@H]2c2ncc(-c3ccc(-c4ccc(-c5cnc([C@@H](NC(=O)C(C)(C)C)C(C)C)[nH]5)cc4)cc3)[nH]2)n1 [Compound Y-13]
Fold-Synergistic 1a (Q30E): >100 fold

CC(C)[C@H](NC(=O)c1c(F)cccc1F)c1ncc(-c2ccc(-c3ccc(-c4cnc([C@@H](NC(=O)c5c(F)cccc5F)C(C)C)[nH]4)cc3)cc2)[nH]1 [Compound S-64]
Fold-Synergistic 1a (Q30E) [1]: >100 fold

CC(C)[C@H](NC(=O)c1ccccc1C#N)c1ncc(-c2ccc(-c3ccc(-c4cnc([C@@H](NC(=O)c5ccccc5C#N)C(C)C)[nH]4)cc3)cc2)[nH]1 [Compound S-94]
Fold-Synergistic 1a (Q30E) [1]: >100 fold

CC(C)(C)[C@H](NC(=O)C1C2CCOC21)c1nc(-c2ccc(-c3ccc(-c4cnc([C@@H](NC(=O)C5C6CCOC65)C(C)(C)C)[nH]4)cc3)cc2)c[nH]1 (single isomer, unassigned) [Compound B-163]
Fold-Synergistic 1a (Q30E) [1]: >100 fold

CC(=O)N(C)C1(C(=O)N[C@H](c2nc(-c3ccc(-c4ccc(-c5c[nH]c([C@@H](NC(=O)C6(N(C)C(C)=O)CC6)C(C)(C)C)n5)cc4)cc3)c[nH]2)C(C)(C)C)CC1.O=C(O)C(F)(F)F.O=C(O)C(F)(F)F [Compound L-11]
Fold-Synergistic 1a (Q30E) [1]: >100 fold

CC(C)[C@H](NC(=O)C(C)(C)n1cccn1)c1ncc(-c2ccc(-c3ccc(-c4cnc([C@@H](NC(=O)C(C)(C)n5cccn5)C(C)C)[nH]4)cc3)cc2)[nH]1 [Compound Y-25]
Fold-Synergistic 1a (Q30E) [1]: >100 fold

CC(C)[C@H](NC(=O)C(=O)C1(O)CCC(F)(F)CC1)c1ncc(-c2ccc(-c3ccc(-c4cnc([C@@H](NC(=O)C(=O)C5(O)CCC(F)(F)CC5)C(C)C)[nH]4)cc3)cc2)[nH]1 [Compound P-125]
Fold-Synergistic 1a (Q30E) [1]: >100 fold

CC(C)(CF)[C@H](NC(=O)C1CCC(F)(F)CC1)c1ncc(-c2ccc(-c3ccc(-c4cnc([C@@H](NC(=O)C5CCC(F)(F)CC5)C(C)(C)CF)[nH]4)cc3)cc2)[nH]1 [Compound Y-69]
Fold-Synergistic 1a (Q30E) [1]: >100 fold

CC(C)C(NC(=O)C1(C)CCC(F)(F)CO1)c1ncc(-c2ccc(-c3ccc(-c4cnc(C(NC(=O)C5(C)CCC(F)(F)CO5)C(C)C)n4C)cc3)cc2)n1C (stereo not shown) [Compound B-201]
Fold-Synergistic 1a (Q30E) [1]: >10 fold

CC(C)(C)C(=O)N[C@H](c1ncc(-c2ccc(-c3ccc(-c4cnc([C@@H](NC(=O)C(C)(C)C)C(C)(C)CF)[nH]4)cc3)cc2)[nH]1)C(C)(C)CF [Compound Y-68]
Fold-Synergistic 1a (Q30E) [1]: >100 fold

COC(C)(C)C(=O)N[C@H](c1nc(-c2ccc(-c3ccc(-c4c[nH]c([C@@H](NC(=O)C(C)(C)OC)C(C)C)n4)c(F)c3)cc2)c[nH]1)C(C)C.O=C(O)C(F)(F)F [Compound N-87]
Fold-Synergistic 1a (Q30E) [1]: >100 fold

CC(C)[C@H](NC(=O)c1ccccc1)c1ncc(-c2ccc(-c3ccc(-c4cnc([C@@H]5CCCN5C(=O)c5ccccc5)[nH]4)cc3)cc2)[nH]1 [Compound Y-15]
Fold-Synergistic 1a (Q30E) [1]: >10 fold

CC(C)(C)C(NC(=O)C(C)(C)C1CCCCO1)c1nc(-c2ccc(-c3ccc(-c4c[nH]c(C(NC(=O)C(C)(C)C5CCCCO5)C(C)(C)C)n4)cc3)cc2)c[nH]1 (mixture of isomers) [Compound P-153]
Fold-Synergistic 1a (Q30E) [1]: >100 fold

COc1ccccc1C(O)C(C)(C)C(=O)N[C@H](c1nc(-c2ccc(-c3ccc(-c4c[nH]c([C@@H](NC(=O)C(C)(C)C(O)c5ccccc5OC)C(C)(C)C)n4)cc3)cc2)c[nH]1)C(C)(C)C (single isomer, unassigned) [Compound N-125B]
Fold-Synergistic 1a (Q30E) [1]: >100 fold

CC(C)CC(=O)N[C@H](c1nc(-c2ccc(-c3ccc(-c4c[nH]c([C@@H](NC(=O)CC(C)C)C(C)(C)C)n4)cc3)cc2)c[nH]1)C(C)(C)C [Compound N-117]
Fold-Synergistic 1a (Q30E) [1]: >100 fold

CC(C)(CF)C(=O)N[C@H](c1nc(-c2ccc(-c3ccc(-c4c[nH]c([C@@H](NC(=O)C(C)(C)CF)C(C)(C)C)n4)cc3)cc2)c[nH]1)C(C)(C)C [Compound P-19]
Fold-Synergistic 1a (Q30E) [1]: >100 fold

CC(C)[C@H](NC(=O)c1cccc(Cl)c1)c1ncc(-c2ccc(-c3ccc(-c4cnc([C@@H](NC(=O)C(C)(C)C)C(C)C)[nH]4)cc3)cc2)[nH]1 [Compound Y-54]
Fold-Synergistic 1a (Q30E) [1]: >100 fold

CC1(C(=O)N[C@H](c2nc(-c3ccc(-c4ccc(-c5c[nH]c([C@@H](NC(=O)C6(C)COC6)C(C)(C)C)n5)cc4)cc3)c[nH]2)C(C)(C)C)COC1 [Compound N-113]
Fold-Synergistic 1a (Q30E) [1]: >100 fold

CC(C)(C(=O)N[C@H](c1nc(-c2ccc(-c3ccc(-c4c[nH]c([C@@H](NC(=O)C(C)(C)C(O)C5CC(F)(F)C5)C(C)(C)C)n4)cc3)cc2)c[nH]1)C(C)(C)C)C(O)C1CC(F)(F)C1 (single isomer, unassigned) [Compound N-144A]
Fold-Synergistic 1a (Q30E) [1]: >100 fold

CC(C)[C@H](NC(=O)N1CCC(F)(F)CC1)c1nc(-c2ccc(-c3ccc(-c4c[nH]c([C@@H](NC(=O)N5CCC(F)(F)CC5)C(C)C)n4)cc3)cc2)c[nH]1 [Compound P-130]
Fold-Synergistic 1a (Q30E) [1]: >100 fold

CC(C)CC(=O)NC1(c2ncc(-c3ccc(-c4ccc(-c5cnc(C6(NC(=O)CC(C)C)CC6)[nH]5)cc4)cc3)[nH]2)CC1.O=C(O)C(F)(F)F.O=C(O)C(F)(F)F [Compound N-21]
Fold-Synergistic 1a (Q30E) [1]: <10 fold

CC(C)(C)[C@H](NC(=O)c1c(F)cccc1Cl)c1nc(-c2ccc(-c3ccc(-c4c[nH]c([C@@H](NC(=O)c5c(F)cccc5Cl)C(C)(C)C)n4)cc3)cc2)c[nH]1 [Compound N-66]
Fold-Synergistic 1a (Q30E) [1]: >100 fold

CO[C@@H](C(=O)N[C@H](c1nc(-c2ccc(-c3ccc(-c4c[nH]c([C@@H](NC(=O)[C@H](OC)c5ccccc5)C(C)(C)C)n4)cc3)cc2)c[nH]1)C(C)(C)C)c1ccccc1 [Compound P-15]
Fold-Synergistic 1a (Q30E) [1]: >100 fold

CC(C)CC(=O)NC1(c2ncc(-c3ccc(-c4ccc(-c5cnc(C6(NC(=O)CC(C)C)CCCC6)[nH]5)cc4)cc3)[nH]2)CCCC1.O=C(O)C(F)(F)F.O=C(O)C(F)(F)F [Compound N-12]
Fold-Synergistic 1a (Q30E) [1]: <10 fold

CCN(CC)S(=O)(=O)NC(c1nc(-c2ccc(-c3ccc(-c4c[nH]c(C(NS(=O)(=O)N(CC)CC)C(C)(C)C)n4)cc3)cc2)c[nH]1)C(C)(C)C [Compound L-121]
Fold-Synergistic 1a (Q30E) [1]: >100 fold

C[C@H]1CCN(C(=O)C(=O)N2CCC(F)(F)CC2)C1c1nc(-c2ccc(-c3ccc(-c4c[nH]c(C5[C@@H](C)CCN5C(=O)C(=O)N5CCC(F)(F)CC5)n4)cc3)cc2)c[nH]1 (stereo partly shown) [Compound W-187]
Fold-Synergistic 1a (Q30E) [1]: >100 fold
